Measurements from US20260337240A1, “CC16-DERIVED ANALOGS FOR THE TREATMENT OF INFLAMMATORY AND OBSTRUCTIVE LUNG DISEASES” (priority 2023, published 2026).
Non-standard residues stand in square brackets, D forms with d. Residues, ends and D or L forms follow the SMILES beside them. Nle = CCCC[C@H](N)C(=O)O

Tests used:
[1] = system: human Rhinovirus in primary nasal cells; test: Peptidomimetic screen in human nasal cells: RV infectivity (RT-PCR); assay type: cell-based; details: for RV infectivity / RV inhibition activity: RV MOI 0.1 for 4 hrs, then compound for 48 hrs, triplicate, RT-PCR (FIG. 10 top panel)
From the text: (§1) Top panel, RV infectivity; middle panel, IFN-lamda; bottom panel, TNF-alpha levels. All determined by RT-PCR.
(§2) CC16-derived peptidomimetics provide protection against human Rhinovirus infection in airway epithelial cells. Preliminary studies were done in primary nasal cells grown at an ALI. Transwell cells were challenged with RV ([…] (MOI) 0.1) for 4 hrs, after which external RV was washed from the cell surface and test compounds added; uninfected baseline controls will be treated the same by pipetting media. Cells are allowed to incubate for an additional 48 hrs. Three readouts were used for analysis in this screen: RV infectivity, INF-lambda induction, and TNF-alpha induction. An optimal compound for this screening will have a reduction in RV infection, maintain high levels of INF-lambda, and have low levels of TNF-alpha.
(§3) RV burden, INF-lambda, and TNF-alpha are assessed by RT-PCR. Those compounds moving forward will be tested in a dose-response to determine optimal concentrations needed for IC50.

INF-lambda = test: Peptidomimetic screen in human nasal cells: INF-lambda induction (RT-PCR); assay type: cell-based; details: 2.5 μM; RV MOI 0.1 for 4 hrs, then compound for 48 hrs; RT-PCR (FIG. 10 middle panel)
From the text: as §1, §2, §3

[2] = system: RV in primary human nasal epithelial cells (HNECs); test: RV infection in primary human nasal epithelial cells (HNECs) at ALI, post-infection treatment (qPCR); assay type: cell-based; details: 25 g/ml (so in the source); added after 4 hrs RV infection, 48 hrs incubation; non-asthma participants; p<0.01 by ANOVA (FIG. 6)
Experimental: Cells were grown at ALI for 3 weeks and infected with RV for 4 hours, after which they were washed and allowed to incubate for 48 hours with or without rCC16 or C836. RV was determined by qPCR. Each dot is a technical replicate, ** p<0.01 by ANOVA.
rCC16 and CC16-derived peptidomimetics reduce RV infection in human nasal cells. In order to test if rCC16 added exogenously could protect against RV viral infection, primary human nasal epithelial cells (HNECs) were grown from non-asthma participants at an air-liquid interface (ALI) for 21 days. On the day of infection, RV was added to the apical surface and allowed to incubate for 4 hrs, after which cells were gently washed with media, and either media alone, rCC16 (25 g/ml), or CC16-derived peptidomimetic, C836 (25 g/ml), were added and cells allowed to incubate for an additional 48 hrs. After harvest, RV infectivity was determined by PCR for RV.

[3] = system: airway hyperresponsiveness (AHR); test: Airway hyperresponsiveness (AHR) to methacholine in HDM-exposed Cc16^−/− mice (flexiVent); assay type: in vivo; details: oropharyngeal, approximately 1 hr after each HDM dose on days 0, 7, 14; methacholine 24 hrs after last HDM; p<0.05 at the highest dose (FIG. 9)
Experimental: C836 was delivered to the airways 2 hrs after each HDM challenge. AHR to methacholine was assessed 24 hrs after the last HDM challenge. * p<0.05 at the highest dose.
C836 reduces AHR in Cc16^−/− mice exposed to HDM. The activity of C836 was tested for its ability to provide protection in the allergic airway model induced by exposure to HDM. For this, CC16^−/− mice were used, and the C836 (or vehicle control) was delivered to the airway via the oropharyngeal method approximately 1 hr after each HDM dose on days 0, 7, and 14. Mice were assessed 24 hrs after the last HDM challenge by flexi Vent® and methacholine challenge.

[4] = system: lung function in HDM-treated mice; test: Baseline lung function (FEV0.2, invasive PFT) without methacholine provocation in HDM-treated mice; assay type: in vivo; details: IV, 24 hrs after last HDM challenge (FIG. 8 right)
Experimental: (§4) Left panel, C836, was delivered via IV 2 hrs after each HDM challenge. Cells in the lavage fluid were measured 24 hrs after the last HDM challenge. Right panel, baseline lung function, without methacholine provocation, as assessed in the mice receiving C836 IV, 24 hrs after the last HDM challenge. ** p<0.01, **** p<0.0001 by ANOVA.
Lung function tests are typically performed using methacholine provocation, which induces bronchoconstriction. However, the tests referenced here were conducted without provocation, meaning that when C836 was administered alongside an HDM challenge, it prevented the loss of lung function typically associated with HDM exposure. These tests were conducted at baseline, without the use of a bronchoconstrictor, similar to an asthma patient living a normal day without an attack.

[5] = system: house dust mite (HDM) allergic airway disease; neutrophils in lavage fluid; test: Neutrophil recruitment into the lung in HDM model, IV treatment; assay type: in vivo, mice; details: IV 2 hrs after each HDM challenge; lavage fluid 24 hrs after last HDM challenge; preliminary (FIG. 8 left)
Experimental: as §4
Thus, a small peptidomimetic was designed based on the newly discovered LVD (leucine-valine-aspartic acid) integrin binding domain contained within the CC16 protein. The lead compound, C836, is a 17-mer containing the LVD integrin binding domain. […] Neutrophils, when present in the lungs of individuals with asthma, are typically associated with more severe and difficult to treat forms of the condition. In COPD, neutrophils are often highly destructive, releasing factors and enzymes that degrade the basement membrane and damage the delicate airway epithelium. Therefore, strategies to reduce neutrophil accumulation or activity in both asthma and COPD would provide significant benefits for overall lung health, potentially improving disease outcomes and reducing airway damage.

TNF-alpha = test: Peptidomimetic screen in human nasal cells: TNF-alpha induction (RT-PCR); assay type: cell-based; details: 2.5 μM; RV MOI 0.1 for 4 hrs, then compound for 48 hrs; RT-PCR (FIG. 10 bottom panel)
From the text: as §1, §2, §3

[6] = system: leukocyte recruitment into the lungs; test: rCC16 delivered intravenously or oropharyngeally: leukocyte recruitment into the lungs; assay type: in vivo; details: only intravenous delivery
From the text: (§5) In the examples provided below, human recombinant CC16 (rCC16) was delivered either intravenously (IV) via retro-orbital injection or directly to the lungs through oropharyngeal delivery.

[7] = system: airway hyperresponsiveness and respiratory infections; test: rCC16 delivered intravenously (retro-orbital) or oropharyngeally: airway hyperresponsiveness and respiratory infections; assay type: in vivo; details: IV via retro-orbital injection or oropharyngeal delivery (both)
From the text: as §5

[8] = system: human Rhinovirus (RV; RVIB); test: RV burden in CC16^−/− mice given rCC16 (RT-PCR); assay type: in vivo; details: female CC16^−/− mice; RV 4×10^7 PFU/50 μl intranasal; rCC16 given at time of infection; RT-PCR at 48 hrs; p<0.05 by t-test (FIG. 4)
Experimental: RT-PCR at 48 hrs. * p<0.05 by t-test.
rCC16 treatment decreases human Rhinovirus (RV; RVIB) burden in CC16^−/− mice: For these studies, female mice were infected with RV (4×10^7 plaque-forming unit (PFU)/50 μl) via intranasal instillation for 48 hrs, and mice were either given vehicle (saline) or rCC16 (human recombinant CC16) at the time of infection.

respiratory challenges = details: direct delivery; cited from earlier work

## CCCC[C@H](NC(=O)[C@H](CC(=O)O)NC(=O)[C@H](CCC(N)=O)NC(=O)[C@H](CC(=O)O)NC(C)=O)C(=O)N[C@@H](CCCNC(=N)N)C(=O)N[C@@H](CCC(=O)O)C(=O)N[C@@H](C)C(=O)NCC(=O)N[C@@H](C)C(=O)N[C@@H](CCC(N)=O)C(=O)N[C@@H](CC(C)C)C(=O)N[C@@H](CCCCN)C(=O)N[C@@H](CCCCN)C(=O)N[C@@H](CC(C)C)C(=O)N[C@H](C(N)=O)C(C)C [Compound 971, Ac-Asp-Gln-Asp-Nle-Arg-Glu-Ala-Gly-Ala-Gln-Leu-Lys-Lys-Leu-Val-NH2] (Ac-DQD[Nle]REAGAQLKKLV-NH2)
[1]; 2.5 μM
  RV infectivity / RV inhibition activity: had RV inhibition activity

## CCCC[C@H](NC(=O)[C@H](CC(=O)O)NC(=O)[C@H](CCC(N)=O)NC(=O)[C@H](CC(=O)O)NC(C)=O)C(=O)N[C@@H](CCCNC(=N)N)C(=O)N[C@@H](CCC(=O)O)C(=O)N[C@@H](C)C(=O)NCC(=O)N[C@@H](C)C(=O)N[C@@H](CCC(N)=O)C(=O)N[C@@H](CC(C)C)C(=O)N[C@@H](CCCCN)C(=O)N[C@@H](CCCCN)C(=O)N[C@@H](CC(C)C)C(=O)N[C@H](C(=O)N[C@@H](CC(=O)O)C(=O)O)C(C)C [Compound 970, Ac-Asp-Gln-Asp-Nle-Arg-Glu-Ala-Gly-Ala-Gln-Leu-Lys-Lys-Leu-Val-Asp-OH] (Ac-DQD[Nle]REAGAQLKKLVD-OH)
[1]; 2.5 μM
  RV infectivity / RV inhibition activity: had RV inhibition activity

## CCCC[C@H](NC(=O)[C@H](CC(=O)O)NC(=O)[C@H](CCC(N)=O)NC(C)=O)C(=O)N[C@@H](CCCNC(=N)N)C(=O)N[C@@H](CCC(=O)O)C(=O)N[C@@H](C)C(=O)NCC(=O)N[C@@H](C)C(=O)N[C@@H](CCC(N)=O)C(=O)N[C@@H](CC(C)C)C(=O)N[C@@H](CCCCN)C(=O)N[C@@H](CCCCN)C(=O)N[C@@H](CC(C)C)C(=O)N[C@H](C(=O)N[C@@H](CC(=O)O)C(=O)N[C@H](C(N)=O)[C@@H](C)O)C(C)C [Compound 972, Ac-Gln-Asp-Nle-Arg-Glu-Ala-Gly-Ala-Gln-Leu-Lys-Lys-Leu-Val-Asp-Thr-NH2] (Ac-QD[Nle]REAGAQLKKLVDT-NH2)
[1]; 2.5 μM
  RV infectivity / RV inhibition activity: had RV inhibition activity
[1]; 2.5 μM, RV-infected nasal cells
  overall outcome of the screen for the 3 factors (RV infectivity, INF-lambda, TNF-alpha): best candidate to move forward
INF-lambda
  INF-lambda levels: maintain INF-lambda levels

## CCCC[C@H](NC(=O)[C@H](CC(=O)O)NC(=O)[C@H](CCC(N)=O)NC(=O)[C@H](CC(=O)O)NC(C)=O)C(=O)N[C@@H](CCCNC(=N)N)C(=O)N[C@@H](CCC(=O)O)C(=O)N[C@@H](C)C(=O)NCC(=O)N[C@@H](C)C(=O)N[C@@H](CCC(N)=O)C(=O)N[C@@H](CC(C)C)C(=O)N[C@@H](CCCCN)C(=O)N[C@@H](CCCCN)C(=O)N[C@@H](CC(C)C)C(=O)N[C@H](C(=O)N[C@@H](CC(=O)O)C(=O)N[C@H](C(N)=O)[C@@H](C)O)C(C)C [Compound C836, DQD-Nle-REAGAQLKKLVDT] (Ac-DQD[Nle]REAGAQLKKLVDT-NH2)
[2]
  reduction of RV infection in human nasal cells: approximately 80%
[1]; 2.5 μM
  RV infectivity / RV inhibition activity: have activity in reducing RV infectivity
[3]
  airway hyperresponsiveness (AHR) compared to HDM-treated given vehicle: significantly lower airway hyperresponsiveness (AHR)
[4]
  loss of lung function as measured by FEV0.2: protective from loss of lung function
[5]
  neutrophils recruited into the lung during HDM challenge: fewer neutrophils are recruited into the lung

## Ac-Nle-Arg-Glu-Ala-Gly-Ala-Gln-Leu-Lys-Lys-Leu-Val-Asp-Thr-NH2 (Ac-[Nle]REAGAQLKKLVDT-NH2; SMILES CCCC[C@H](NC(C)=O)C(=O)N[C@@H](CCCNC(=N)N)C(=O)N[C@@H](CCC(=O)O)C(=O)N[C@@H](C)C(=O)NCC(=O)N[C@@H](C)C(=O)N[C@@H](CCC(N)=O)C(=O)N[C@@H](CC(C)C)C(=O)N[C@@H](CCCCN)C(=O)N[C@@H](CCCCN)C(=O)N[C@@H](CC(C)C)C(=O)N[C@H](C(=O)N[C@@H](CC(=O)O)C(=O)N[C@H](C(N)=O)[C@@H](C)O)C(C)C) [Compound 974]
[1]; 2.5 μM
  RV infectivity / RV inhibition activity: had RV inhibition activity
TNF-alpha
  TNF-alpha levels: has a spike in TNF-alpha
INF-lambda
  INF-lambda levels: maintain INF-lambda levels

B1: rCC16: human recombinant CC16 (club cell secretory protein) (protein, UniProt P11684 22-91, looked up)
Uteroglobin: EICPSFQRVIETLLMDTPSSYEAAMELFSPDQDMREAGAQLKKLVDTLPQKPRESIIKLMEKIAQSSLCN
[2]
  reduction of RV infection in human nasal cells: approximately 80%
[1]; rCC16, RV infection of nasal cells, read-out: dose found to be optimal to inhibit 50% of infection
  IC50: 2.5 µM
[6]
  leukocyte recruitment into the lungs: reduce leukocyte recruitment into the lungs
[7]
  protection against airway hyperresponsiveness and respiratory infections: effective in providing protection
[8]
  RV burden compared to vehicle-treated mice: significant reduction in RV
Respiratory challenges
  protection during respiratory challenges: protective

B2: rCC16 made at UA (MJ): standard control, rCC16 made at UA (MJ) (protein, UniProt P11684 22-91, looked up)
Uteroglobin: EICPSFQRVIETLLMDTPSSYEAAMELFSPDQDMREAGAQLKKLVDTLPQKPRESIIKLMEKIAQSSLCN
[1]; 2.5 μM
  RV infectivity / RV inhibition activity: have activity in reducing RV infectivity

B3: rCC16 from R&D: standard control, rCC16 from R&D (protein, UniProt P11684 22-91, looked up)
Uteroglobin: EICPSFQRVIETLLMDTPSSYEAAMELFSPDQDMREAGAQLKKLVDTLPQKPRESIIKLMEKIAQSSLCN
[1]; 2.5 μM
  RV infectivity / RV inhibition activity: have activity in reducing RV infectivity
